Results taken from US20240041773A1, “POWDER MIXING DEVICE, AND USES THEREOF” (University of Connecticut, priority 2022, published 2024).

Assays:
[1] = Tribocharging of ibuprofen powder in V blenders, specific charge measured by Faraday cup; type: physicochemical
Experimental: Ibuprofen was chosen as the model blending powder 140 due to its ability to charge excessively and was evaluated in all the V blenders 110. The V blender materials were procured from McMaster-Carr (https://www.mcmaster.com/) and was fabricated at the University of Connecticut (https://uconn.edu/). Ibuprofen powder 140 was spread into thin layers onto aluminum foil and equilibrated overnight at 16% RH along with the V blender 110 before the blending experiments. Before starting the experiment, initial charge was measured using Faraday cup 200. The blender 110 was charged with the powder 140 and blended in all the blenders for different time intervals. After completion of the tribocharging experiment powder was collected in the Faraday cup 200 connected to a nano-coulombmeter to measure the charge, which was reported as charge to mass ratio, also known as specific charge (nC/g) (FIG. 9). All experiments were done in triplicate at room temperature and at 16% RH. Similar experiments were also performed using ibuprofen—excipient blends to understand equipment capability to mitigate electrostatic charging in other powders. For this study, Ibuprofen—Sugar sphere (500/600 μm) blends were evaluated using stainless steel (SS), stainless steel-PVC (SS-PVC), and PVC blenders. Sugar spheres is widely used excipient for sustained-release pellet formulations used in oral dosage forms therefore, selected for this study.
With reference to FIGS. 10-16, to study triboelectrification, a measured quantity 50 g of ibuprofen was loaded into the V blender 110 which were rotated at 13 rpm for different time intervals. The experiments were performed for different time intervals such as 2, 10, 20, 30, and 40 mins (respectively graphed as bars A-E in FIGS. 10-14) at 13 rpm and 16% relative humidity. […] Final charge with Al-PVC blender 110 of FIG. 6 as shown with the different graphed bars 12A-12E of the bar graph of FIG. 12 was negative in polarity, e.g., due to more interaction of ibuprofen with Aluminum. It can be observed after comparing specific charge from three blenders 110, the Al-PVC blender 110 of FIG. 6 can reduce charge (FIGS. 10-12).
Additionally, the graphs of these FIGS. are showing the charge in nC/g which might appear small but industrial manufacturing involves large scale handling of powders which leads to huge electrostatic charging.

[2] = Powder adhesion to blender wall (initial powder weight minus powder recovered); type: physicochemical
Experimental: Reference will now be to FIGS. 17A, 17B and 18. To investigate the impact of using the surface of the blender on powder adhesion to the blender material, the total powder adhesion was calculated by subtracting the amount of powder recovered and initial powder weight. […] This may be the result of significant adhesive forces between the blender wall and ibuprofen particles. The blender wall has an opposite charge as compared to ibuprofen particles therefore powder particles becomes attracted to the blender wall and deposit there due to image forces. Additionally, bipolar charging may occur due to this high level of powder adhesion which could further decrease the number of particle-blender wall collisions, further changing the powder charging dynamics.

SMILES: CC(C)Cc1ccc(C(C)C(=O)O)cc1 (stereo not shown) [Ibuprofen]
- charge accumulated compared with the PVC and Al blenders ([1]; Al-PVC blender, 13 rpm, 16% RH): significantly less
- polarity of final charge ([1]; Al-PVC blender, 50 g, 13 rpm, 16% RH): negative
- polarity of charge acquired ([1]; Aluminum blender, 50 g, 13 rpm, 2-40 mins, 16% RH): negatively
- polarity of charge acquired ([1]; PVC blender, 50 g, 13 rpm, 2-40 mins, 16% RH): positively
- polarity of charge acquired ([1]; PVC blender, 50 g, 13 rpm, 2-40 mins, 16% RH, listed as ibuprofen): positive charge
- time of charge saturation ([1]; blending at 13 rpm, 16% RH): 30 min
- polarity of charge acquired ([1]; stainless steel and PVC blender (SS-PVC)): negative charge
- polarity of charge acquired ([1]; stainless steel blender (cGMP material)): negative charge
- powder adhesion to the blender walls ([2]; dual-material blenders (Al-PVC, SS-PVC)): decrease in the powder adhesion
- powder adhesion to the blender walls ([2]; metal or insulator (single-material) blenders): significant adhesion
